Measurements taken from patent US4621083A, “PAF-antagonistic diazepines” (Boehringer Ingelheim KG, priority 1984, dated 1986).
Where two headings read alike, the source gives them in different places.

Test system: PAF-induced aggregation of human thrombocytes
Test: Inhibition of PAF-induced blood platelet aggregation in vitro
Format: cell-based
Conditions: read-out: PAF-Antag. IC50
Procedure: 1. Inhibition of blood platelet aggregation in vitro
The PAF-induced aggregation of human thrombocytes in vitro is used to determine PAF-antagonistic activity. To obtain thrombocyte-rich plasma (TRP), blood is taken from an uncongested vein using a plastic syringe containing 3.8% sodium citrate solution. The ratio of sodium citrate solution to blood is 1:9. After careful mixing the citrate blood is centrifuged for 20 minutes at 150 g (1200 rpm). The thrombocyte aggregation is measured using the method devised by Born and Cross (G. V. R. Born and M. J. Cross, J. Physiol. 168, 178 (1963)), by adding an aggregation initiator (PAF) to the TRP with constant stirring.
The test substance is added 2 to 3 minutes before aggregation is initiated in a volume of 10 ul. Either distilled water, ethanol and/or dimethylsulphoxide (each in suitable concentrations) can be used as solvent.
Control mixtures contain corresponding volumes of these solvents. After the initial absorption has been recorded (2 to 3 minutes) aggregation is induced with PAF (5×10^-8 M).
The maximum of the first aggregation wave is used to assess the effects of the substance. The PAF-induced maximum absorption rate (=maximum aggregation×100%) is tested at the same time in a parallel mixture (=control mixture in one of the channels of the two-channel aggregometer) as each test mixture (second channel) and is used as a 100% value.
The aggregation value attained under the effect of the test substance is given as a percentage of the control value, i.e. less than 100% in the case of an inhibition of aggregation and over 100% in the case of an increase.
Each test substance is investigated at concentrations of from 10^-3 to 10^-8 M with a random sampling of n=4 with regard to an inhibitory effect on the PAF-induced thrombocyte aggregation. Then a concentration-activity curve is drawn up using 3 concentrations and the IC50 is determined (concentration giving a 50% inhibition of aggregation).

Row | SMILES | IC50 (Homo sapiens) | IC50 (table 3 (formula with R7), human thrombocyte-rich plasma, aggregation induced with PAF 5×10^-8 M)
1 | Cc1nnc2n1-c1ccccc1C(c1ccccc1)=NC2 | 16 µM | 
2 | Cc1nnc2n1-c1ccccc1C(c1ccccc1Cl)=NC2 [compound 2] | 8.6 µM | 
3 | Cc1nnc2n1-c1ccc(Cl)cc1C(c1ccccc1)=NC2 [compound 3, Alprazolam, reference compound] | 14 µM | 
4 | Cc1nnc2n1-c1ccc(Cl)cc1C(c1ccccc1Cl)=NC2 [compound 4, Triazolam, reference compound] | 9 µM | 
5 | Cc1nnc2n1-c1cc(Cl)ccc1C(c1ccccc1Cl)=NC2 [compound 5] | 300 µM | 
6 | Cc1ccc2c(c1)C(c1ccccc1Cl)=NCc1nnc(C)n1-2 [compound 6] | 9.1 µM | 
7 | Cc1nnc2n1-c1sccc1C(c1ccccc1Cl)=NC2 [compound 7] | 22 µM | 
8 | CCc1cc2c(s1)-n1c(C)nnc1CN=C2c1ccccc1Cl [compound 8] | < 5 µM | 
9 | Cc1nnc2n1-c1sc(Cl)cc1C(c1ccccc1Cl)=NC2 [compound 9] | < 2 µM | 
10 | Cc1nnc2n1-c1sc(Br)cc1C(c1ccccc1Cl)=NC2 [compound 10] | 0.5 µM | 
11 | CSCc1cc2c(s1)-n1c(C)nnc1CN=C2c1ccccc1Cl [compound 11] | < 5 µM | 
12 | Cc1nnc2n1-c1sc([N+](=O)[O-])cc1C(c1ccccc1Cl)=NC2 [compound 12] | 2.6 µM | 
13 | Cc1csc2c1-n1c(C)nnc1CN=C2c1ccccc1 [compound 22] | > 100 µM | 
14 | Cc1nnc2n1-c1ccsc1C(c1ccccc1)=NC2 [compound 23] | 19.8 µM | 
15 | Cc1nnc2n1-c1ccsc1C(c1ccccc1Cl)=NC2 [compound 24] | 7.6 µM | 
16 | Cc1nc2c(s1)C(c1ccccc1)=NCc1nncn1-2 [compound 26] | 700 µM | 
17 | CCn1nc(C)c2c1-n1c(C)nnc1CN=C2c1ccccc1Cl [compound 27] | 270 µM | 
18 | Cc1nnc2n1-c1c(nnn1C)C(c1ccccc1Cl)=NC2 [compound 29] | 950 µM | 
19 | Cc1cnc2n1-c1sc(Br)cc1C(c1ccccc1Cl)=NC2 [compound 30] | < 10 µM | 
20 | Cc1ncc2n1-c1ccc(Cl)cc1C(c1ccccc1F)=NC2 [compound 31] | 690 µM | 
21 | COc1ccc2c(c1)C(c1ccccc1Cl)=NCc1nnc(C)n1-2 [compound 43] | 33.3 µM | 
22 | Cc1nnc2n1-c1sc3c(c1C(c1ccccc1Cl)=NC2)CCOC3 [compound 44] | < 5 µM | 
23 | Cc1nnc2n1-c1sc3c(c1C(c1ccccc1Cl)=NC2)CCNC3 [compound 45] | < 10 µM | 
24 | Cc1nnc2n1-c1sc(C[S+](C)[O-])cc1C(c1ccccc1Cl)=NC2 (stereo not drawn) [compound 46] | < 10 µM | 
25 | Cc1nnc2n1-c1sc(CS(C)(=O)=O)cc1C(c1ccccc1Cl)=NC2 [compound 47] | < 10 µM | 
26 | Cc1cc2c(cc1C)-n1c(C)cnc1CN=C2c1ccccc1Cl [compound 48] | 528 µM | 

Row | SMILES | IC50 (Homo sapiens) | IC50 (table 3 (formula with R7), human thrombocyte-rich plasma, aggregation induced with PAF 5×10^-8 M)
27 | CCOC(=O)c1ncn2c1CN=C(c1ccccc1Cl)c1ccsc1-2 [compound 49] | 210 µM | 
28 | Clc1ccccc1C1=NCc2cncn2-c2sccc21 [compound 50] | 87 µM | 
29 | CCOC(=O)c1ncn2c1CN=C(c1ccccc1Cl)c1cc(Br)sc1-2 [compound 52] | 134 µM | 
30 | Clc1ccccc1C1=NCc2cncn2-c2sc(Br)cc21 [compound 53] | 97.4 µM | 
31 | Clc1ccc2c(c1)C(c1ccccc1Cl)=NCc1nncn1-2 [compound 54] | 115 µM | 
32 | Clc1ccc2c(c1)C(c1ccccc1)=NCc1nnc(Br)n1-2 [compound 55] | 119 µM | 
33 | COc1nnc2n1-c1ccc(Cl)cc1C(c1ccccc1Cl)=NC2 [compound 56] | 20.6 µM | 
34 | Clc1ccc2c(c1)C(c1ccccc1Cl)=NCc1nnc(Br)n1-2 [compound 57] | 25 µM | 
35 | Cc1nnc2n1-c1sc(C#N)cc1C(c1ccccc1Cl)=NC2 [compound 58] | 3.8 µM | 
36 | CC(=CC(=O)O)c1cc2c(s1)-n1c(C)nnc1CN=C2c1ccccc1Cl [compound 59] | > 50 µM | 
37 | CCOC(=O)c1ccn2c1CN=C(c1ccccc1Cl)c1cc(Cl)ccc1-2 [compound 60] | 444 µM | 
38 | Clc1ccc2c(c1)C(c1ccccc1Cl)=NCc1cncn1-2 [compound 61] | 246 µM | 
39 | Cc1nnc2n1-c1ccc([N+](=O)[O-])cc1C(c1ccccc1Cl)=NC2 [compound 62] | 10 µM | 
40 | Clc1ccc2c(c1)C(c1ccccc1Cl)=NCc1nnc(C3CC3)n1-2 [compound 63] | 7 µM | 
41 | Cc1nnc2n1-c1cccc(Cl)c1C(c1ccccc1Cl)=NC2 [compound 64] | 280 µM | 
42 | Cc1cc2c(cc1C)-n1c(C)nnc1CN=C2c1ccccc1Cl [compound 65] | 217 µM | 
43 | Cc1nnc2n1-c1sc(C(=O)O)cc1C(c1ccccc1Cl)=NC2 [compound 67] | > 100 µM | 
44 | CC(=O)c1cc2c(s1)-n1c(C)nnc1CN=C2c1ccccc1Cl [compound 68] | < 10 µM | 
45 | Fc1ccccc1C1=NCc2cncn2-c2ccc(Cl)cc21 [compound 69] | 580 µM | 
46 | CCOC(=O)c1ncc2n1-c1ccc(Cl)cc1C(c1ccccc1F)=NC2 [compound 70] | 730 µM | 
47 | Cc1nnc2n1-c1c(Cl)cccc1C(c1ccccc1Cl)=NC2 [compound 71] | 300 µM | 
48 | Cc1nnc2n1-c1cc(F)ccc1C(c1ccccc1Cl)=NC2 [compound 72] | 56 µM | 
49 | Cc1ccc2c(c1)-n1c(C)nnc1CN=C2c1ccccc1Cl [compound 73] | 243 µM | 
50 | Cc1nnc2n1-c1ccc(C#N)cc1C(c1ccccc1Cl)=NC2 [compound 75] | < 20 µM | 
51 | Cc1nnc2n1-c1sc(CC(=O)O)cc1C(c1ccccc1Cl)=NC2 [compound 76] | > 100 µM | 
52 | Cc1nnc2n1-c1sc(C(C)O)cc1C(c1ccccc1Cl)=NC2 (stereo not drawn) [compound 77] | < 10 µM | 

Row | SMILES | IC50 (Homo sapiens) | IC50 (table 3 (formula with R7), human thrombocyte-rich plasma, aggregation induced with PAF 5×10^-8 M)
53 | COC(=O)c1ccc2c(c1)C(c1ccccc1)=NCc1ncc(C)n1-2 [compound 78] | 8 µM | 
54 | CCOC(=O)c1ccc2c(c1)-n1c(C)nnc1CN=C2c1ccccc1 [compound 79] | 38 µM | 
55 | CC(C)(O)c1ccc2c(c1)C(c1ccccc1)=NCc1nncn1-2 [compound 81] | 103 µM | 
56 | CC(=O)c1ccc2c(c1)C(c1ccccc1)=NCc1nnc(C)n1-2 [compound 82] | 63 µM | 
57 | CCOC(=O)C=C(C)c1cc2c(s1)-n1c(C)nnc1CN=C2c1ccccc1Cl [compound 83] | < 50 µM | 
58 | Cc1nnc2n1-c1ccccc1C(c1ccccc1Cl)NC2 (stereo not drawn) [compound 85] | 8.7 µM | 
59 | Cc1nnc2n1-c1ccc(Cl)cc1C(c1ccccc1Cl)NC2 (stereo not drawn) [compound 86] | 8.3 µM | 
60 | Cc1nnc2n1-c1cc(Cl)ccc1C(c1ccccc1Cl)NC2 (stereo not drawn) [compound 87] | 190 µM | 
61 | Cc1nnc2n1-c1sc(Cl)cc1C(c1ccccc1Cl)NC2 (stereo not drawn) [compound 88] | < 5 µM | 
62 | Cc1nnc2n1-c1sc(Br)cc1C(c1ccccc1Cl)NC2 (stereo not drawn) [compound 89] | < 10 µM | 
63 | CCc1cc2c(s1)-n1c(C)nnc1CNC2c1ccccc1Cl (stereo not drawn) [compound 90] | < 5 µM | 
64 | Cc1nnc2n1-c1sc(Br)cc1C(c1ccccc1Br)NC2 (stereo not drawn) [compound 91] | < 5 µM | 
65 | Clc1ccccc1C1NCc2nncn2-c2sc(Br)cc21 (stereo not drawn) [compound 92] | 140 µM | 
66 | NCc1nnc2n1-c1sc(Br)cc1C(c1ccccc1Cl)NC2 (stereo not drawn) [compound 93] | < 50 µM | 
67 | Cc1nnc2n1-c1sc(Br)cc1C(c1ccccc1Cl)N(CCO)C2 (stereo not drawn) [compound 94] | 11 µM | 
68 | Cc1nnc2n1-c1sc(Br)cc1C(c1ccccc1Cl)N(C)C2 (stereo not drawn) [compound 95] | 7.4 µM | 
69 | CN(C)CCc1nnc2n1-c1sc(Br)cc1C(c1ccccc1Cl)N(C)C2 (stereo not drawn) [compound 96] | 26 µM | 
70 | CCC1NC(c2ccccc2Cl)c2cc(Br)sc2-n2c(C)nnc21 (stereo not drawn) [compound 97] | < 100 µM | 
71 | Cc1ccccc1C1NCc2nnc(C)n2-c2ccccc21 (stereo not drawn) [compound 98] | 63 µM | 
72 | COc1ccccc1C1NCc2nnc(C)n2-c2ccccc21 (stereo not drawn) [compound 99] | 218 µM | 
73 | COc1ccc2c(c1)C(c1ccccc1Cl)NCc1nnc(C)n1-2 (stereo not drawn) [compound 100] | < 50 µM | 
74 | Cc1cc2c(cc1C)-n1c(C)nnc1CNC2c1ccccc1Cl (stereo not drawn) [compound 101] | 342 µM | 
75 | Cc1ccc2c(c1)C(c1ccccc1Cl)NCc1nnc(C)n1-2 (stereo not drawn) [compound 102] | < 5 µM | 
76 | CCOC(=O)c1nc(C)n2c1CNC(c1ccccc1Cl)c1cc(Cl)ccc1-2 (stereo not drawn) [compound 103] |  | 519 µM
77 | Cc1ccc2c(c1)C(c1ccccc1Cl)N(C)Cc1nnc(C)n1-2 (stereo not drawn) [compound 104] | 81 µM | 
78 | Cc1ccc2c(c1)-n1c(C)nnc1CNC2c1ccccc1Cl (stereo not drawn) [compound 105] | 277 µM | 
